Test [1] has as its system ob/ob mice. The experiment in a line: Plasma glucose in ob/ob mice, metformin/gemfibrozil, oral once a day for 3 days. It is filed as in vivo. Conditions: for Effect on plasma glucose concentrations (in words) / Glucose levels Day 3: ob/ob mice; for Effect on plasma glucose concentrations (in words): 3 days oral, versus vehicle; for Difference between Vehicle & treatment: plasma glucose Day 3, ob/ob mice; for Difference between Vehicle & treatment / Glucose levels Day 3: metformin 90 mg/kg, gemfibrozil 100 mg/kg; for Glucose levels Day 3: plasma glucose, oral once a day for 3 days. Here is the method: (§1) Experiment was conducted in ob/ob mice, an animal model of diabetes. Male, 8-9 week old ob/ob mice were purchased from Jackson Laboratory (Bar Harbor, Me.) and housed in a temperature and humidity controlled room with 12 hour light (6 am to 6 pm)/dark (6 pm-6 am) cycle and ad libitum of water and regular Purina chow. Animals were screened for plasma glucose levels and randomized into groups for experiments.
In this experiment, 8 animals were orally dosed with vehicle, metformin (90 mg/kg), gemfibrozil (100 mg/kg), or combination of metformin (90 mg/kg) and gemfibrozil (100 mg/kg) once a day for 3 days. Plasma glucose concentrations were determined at the end of the experiment.

For test [2] the following is noted: literature: WO 99/40904, U.S. Pat. No. 5,304,575, Vuorinen-Markkola 1993, Hernandez-Mijares 2000; cited from earlier work.
The test system of test [3] is ob/ob mice. The experiment in a line: Plasma glucose in ob/ob mice, metformin/ciprofibrate, oral once a day for 4 days. It is filed as in vivo. Conditions: for Effect on plasma glucose concentrations (in words) / Glucose levels Day 4: ob/ob mice; for Effect on plasma glucose concentrations (in words): 4 days oral, versus vehicle; for Difference between Vehicle & treatment: plasma glucose Day 4, ob/ob mice; for Difference between Vehicle & treatment / Glucose levels Day 4: metformin 90 mg/kg, ciprofibrate 2.5 mg/kg; for Glucose levels Day 4: plasma glucose, oral once a day for 4 days. Here is the method:
as §1
Experiment was conducted in ob/ob mice. The experimental condition was the same as Working Example 1.
In this experiment, 8 animals were orally dosed with vehicle, metformin (90 mg/kg), ciprofibrate (2.5 mg/kg), or combination of metformin (90 mg/kg) and ciprofibrate (2.5 mg/kg) once a day for 4 days. Plasma glucose concentrations were determined at the end of the experiment.

We go through 3 molecules from patent publication US20050165109A1, “Pharmaceutical composition with combined active agents and methods for using the same” (priority 2002, published 2005).

Take `Cc1ccc(C)c(OCCCC(C)(C)C(=O)O)c1` [Gemfibrozil, gemfibrozil]: in the test with ob/ob mice [1], the “Effect on plasma glucose concentrations (in words)” value was “did not have significant effect on glucose level”, the “Difference between Vehicle & treatment” value is -57.1 mg/dL and the “Glucose levels Day 3” value amounted to 349.7 ± 39.0 mg/dL. Also, in the test on ob/ob mice [1] (listed as gemfibrozil), the “Effect on plasma glucose concentrations (in words)” value was “minimum reduction of plasma glucose and it was not statistically significant”. The “Glucose-lowering effect (in words)” value in test [2] was “lack of glucose-lowering effect”.
On to `CN(C)C(=N)N=C(N)N` [Metformin, metformin], for which, in the test with ob/ob mice [1], the “Effect on plasma glucose concentrations (in words)” value is listed as “significantly reduced plasma glucose concentrations”, the “Difference between Vehicle & treatment” value is -88.2 mg/dL and the “Glucose levels Day 3” value came out at 318.6 ± 29.3 mg/dL. Besides, in the test with ob/ob mice [3], the “Effect on plasma glucose concentrations (in words)” value was “significantly reduced plasma glucose concentrations”, the “Difference between Vehicle & treatment” value was -84.1 mg/dL and the “Glucose levels Day 4” value amounted to 299.2 ± 24.9 mg/dL.
`CC(C)(Oc1ccc(C2CC2(Cl)Cl)cc1)C(=O)O` (stereo not shown) [Ciprofibrate, ciprofibrate]: in the test with ob/ob mice [3], the “Effect on plasma glucose concentrations (in words)” value is on record as “did not have significant effect on glucose levels”, the “Difference between Vehicle & treatment” value is -32.2 mg/dL and the “Glucose levels Day 4” value was found to be 351.1 ± 23.1 mg/dL. For the same molecule, the “Effect on plasma glucose concentrations (in words)” value in the test with ob/ob mice [3] (listed as ciprofibrate) was “minimum effect on reducing plasma glucose and it was not statistically significant”. The “Glucose-lowering effect (in words)” value in test [2] was “lack of glucose-lowering effect”.
